Measurements as given in article PMC8400955 (Pharmaceuticals, 2021).

Key:
[1] = 7-day repeated-dose TK in dogs; type: in vivo; details: beagle, dog, plasma, po
Protocol: The TK of ZB716 was investigated following once-daily administration via oral gavage for 7 consecutive days. Beagle dogs (n = 1/sex) were orally administered ZB716 at dose levels of 100 and 200 mg/kg/day.
The TK of ZB716 was investigated following once-daily administration via oral gavage for 7 consecutive days. The Cmax and AUClast values of ZB716 increased with dose in a greater than dose-proportional manner. However, the exposure in the female given 100 mg/kg/day was higher than that in the female given 200 mg/kg/day on days 1 and 7 (Figure 3). During the study, females had higher exposure at 100 mg/kg/day, and males had higher exposure at 200 mg/kg/day.
(§1) Four-to-six-week-old Sprague Dawley rats (Crl: CD (SD)) (SPF/VAF) were purchased from Beijing Vital River Laboratory Animal Technology, Co. Ltd.). Six-month-old beagle dogs were purchased from Beijing Marshall Biotechnology Co. Ltd. Animals were quarantined/acclimated for 2–6 weeks prior to dose initiation. Both Sprague Dawley rats and beagle dogs were given oral administration of ZB716 (20% PG, 5% Solutol, and 75% of 40% HP-β-CD in water) at different dose levels. After treatment with the test articles, whole blood was collected from each study animal by puncture of the tail vein (0.4 mL of whole blood from rats) and/or the peripheral vein (0.6 mL of whole blood from dogs) into tubes containing K2EDTA at each timepoint: pre-dose, and 0.5, 1, 2, 4, 8, and 24 h post-dose. The plasma samples were divided into 2 aliquots (approximately equal in volume) and stored frozen at −75 ± 15 °C within 2 h of the collection until analysis at Pharmaron, China.
(§2) The stock solution of ZB716 (5.0 mg/mL) and ZB716-d6 (1 mg/mL) in ACN:DI Water = 1:1 was prepared and stored at −20 ± 5 °C. The desired serial concentrations of working reference analyte solutions were achieved by diluting a stock analyte solution with 50% acetonitrile (0.1% formic acid) in water solution. The bioanalytical LC–MS/MS method was validated for quantitative determination of ZB716 in Sprague Dawley rat plasma and beagle dog plasma, with acceptable selectivity, sensitivity, calibration curve, precision, and accuracy. This method is applicable for the determination of ZB716 in Sprague Dawley rat plasma and beagle dog plasma, with a lower limit of quantification of 20.0 ng/mL, and an upper limit of quantification of 10,000 ng/mL.
(§3) Five microliters of diluted supernatant was injected into the LC–MS/MS system (Shimadzu LC30AD HPLC system with a SynergiTM 4 μm Fusion-RP 80 Å (50 × 2 mm) column using gradient elution and a Triple Quad 5500 mass spectrometer) for quantitative analysis. The mobile phases used were 0.1% formic acid in deionized water and 0.1% formic acid in acetonitrile. The pharmacokinetic parameters T1/2 (the biological half-life), Cmax (maximal concentration), Tmax (time at which Cmax is observed), and AUC (area under the plasma concentration–time curve) were calculated from the plasma concentration versus time data using WinNonlin (Phoenix^TM, version 8.1, Mountain View, CA, USA). All PK studies were conducted by Pharmaron in Beijing, China.

[2] = 7-day repeated-dose PK in rats; type: in vivo, Sprague Dawley rats; details: rat, plasma
Protocol: Groups of Sprague Dawley rats (n = 5/sex/group; n = 3/sex/TK group) were orally administered ZB716 (20% PG, 5% Solutol, and 75% of 40% HP-β-CD in DI water) at dose levels of 10, 100, and 400 mg/kg/day for 7 days. […] Systemic exposure, expressed as Cmax and AUClast values, increased with dose in a less than dose-proportional manner on days 1 and 7 (Figure 2). A slight gender difference was observed; generally, systemic exposures were higher in females than in males (male/female AUClast ratio = 0.442:0.883). Accumulation was observed only in male animals given 400 mg/kg/day.
as §1, §2, §3

[3] = female, 100 mg/kg/day, day 1, PO 100 mg/kg/day, F
[4] = female, 100 mg/kg/day, day 7, PO 100 mg/kg/day, F
[5] = female, 200 mg/kg/day, day 1, PO 200 mg/kg/day, F
[6] = female, 200 mg/kg/day, day 7, PO 200 mg/kg/day, F
[7] = male, 100 mg/kg/day, day 1, PO 100 mg/kg/day, M
[8] = male, 100 mg/kg/day, day 7, PO 100 mg/kg/day, M
[9] = male, 200 mg/kg/day, day 1, PO 200 mg/kg/day, M
[10] = male, 200 mg/kg/day, day 7, PO 200 mg/kg/day, M
[11] = female, Sprague Dawley (Crl: CD (SD)), po, 400 mg/kg/day, day 1, PO 400 mg/kg/day, F
[12] = female, Sprague Dawley, po, 10 mg/kg/day, day 1, PO 10 mg/kg/day, F
[13] = female, Sprague Dawley, po, 10 mg/kg/day, day 7, PO 10 mg/kg/day, F
[14] = female, Sprague Dawley, po, 100 mg/kg/day, day 7, PO 100 mg/kg/day, F
[15] = female, Sprague Dawley, po, 400 mg/kg/day, day 7, PO 400 mg/kg/day, F
[16] = male, Sprague Dawley (Crl: CD (SD)), po, 10 mg/kg/day, day 7, PO 10 mg/kg/day, M
[17] = male, Sprague Dawley (Crl: CD (SD)), po, 400 mg/kg/day, day 1, PO 400 mg/kg/day, M
[18] = male, Sprague Dawley, po, 10 mg/kg/day, day 1, PO 10 mg/kg/day, M
[19] = male, Sprague Dawley, po, 100 mg/kg/day, day 1, PO 100 mg/kg/day, M
[20] = male, Sprague Dawley, po, 100 mg/kg/day, day 7, PO 100 mg/kg/day, M
[21] = male, Sprague Dawley, po, 400 mg/kg/day, day 7, PO 400 mg/kg/day, M

SMILES: C[C@]12CC[C@@H]3c4ccc(B(O)O)cc4C[C@@H](CCCCCCCCC[S+]([O-])CCCC(F)(F)C(F)(F)F)[C@H]3[C@@H]1CC[C@@H]2O (stereo partly drawn) [ZB716, fulvestrant-3-boronic acid]
- Tmax at 7 days ([1]; both sexes, 200 mg/kg/day, 7-day repeat oral administration, 100 and 200 mg/kg/day, mostly): 0.5 to 2 h
- AUC(0-t) [1, 3]: 55600 ng·h/mL
- Cmax [1, 3]: 7210 ng/mL
- Tmax [1, 3]: 2 h
- AUC(0-t) [1, 4]: 81100 ng·h/mL
- Cmax [1, 4]: 12300 ng/mL
- Tmax [1, 4]: 4 h
- AUC(0-t) [1, 5]: 9780 ng·h/mL
- Cmax [1, 5]: 1740 ng/mL
- Tmax [1, 5]: 1 h
- AUC(0-t) [1, 6]: 46700 ng·h/mL
- Cmax [1, 6]: 8420 ng/mL
- Tmax [1, 6]: 2 h
- AUC(0-t) [1, 7]: 5070 ng·h/mL
- Cmax [1, 7]: 1350 ng/mL
- Tmax [1, 7]: 1 h
- AUC(0-t) [1, 8]: 17800 ng·h/mL
- Cmax [1, 8]: 3430 ng/mL
- Tmax [1, 8]: 1 h
- AUC(0-t) [1, 9]: 52200 ng·h/mL
- Cmax [1, 9]: 8430 ng/mL
- Tmax [1, 9]: 2 h
- AUC(0-t) [1, 10]: 103000 ng·h/mL
- Cmax [1, 10]: 18300 ng/mL
- Tmax [1, 10]: 2 h
- Tmax ([2]; both sexes, Sprague Dawley, oral, 100 mg/kg/day, 10 and 100 mg/kg/day, day 1 and day 7, mostly, read-out: Tmax): 0.5 to 1 h
- Tmax ([2]; both sexes, Sprague Dawley, oral, 400 mg/kg/day, day 1 and day 7, read-out: Tmax): ≤ 8 h
- AUC(0-t) ([2]; female, Sprague Dawley (Crl: CD (SD)), po, 100 mg/kg/day, day 1, PO 100 mg/kg/day, F): 26700 ng·h/mL
- AUC(0-t) [2, 11]: 27900 ng·h/mL
- Cmax [2, 11]: 2770 ng/mL
- Tmax ([2]; female, Sprague Dawley (Crl: CD (SD)), po, 400 mg/kg/day, day 1, PO 400 mg/kg/day, F, read-out: Tmax (median)): 8 h
- AUC(0-t) [2, 12]: 1760 ng·h/mL
- Cmax [2, 12]: 459 ng/mL
- Tmax ([2]; female, Sprague Dawley, po, 10 mg/kg/day, day 1, PO 10 mg/kg/day, F, read-out: Tmax (median)): 0.5 h
- AUC(0-t) [2, 13]: 2820 ng·h/mL
- Cmax [2, 13]: 710 ng/mL
- Tmax ([2]; female, Sprague Dawley, po, 10 mg/kg/day, day 7, PO 10 mg/kg/day, F, read-out: Tmax (median)): 0.5 h
- Cmax ([2]; female, Sprague Dawley, po, 100 mg/kg/day, day 1, PO 100 mg/kg/day, F): 3350 ng/mL
- Tmax ([2]; female, Sprague Dawley, po, 100 mg/kg/day, day 1, PO 100 mg/kg/day, F, read-out: Tmax (median)): 1 h
- AUC(0-t) [2, 14]: 20700 ng·h/mL
- Cmax [2, 14]: 2750 ng/mL
- Tmax ([2]; female, Sprague Dawley, po, 100 mg/kg/day, day 7, PO 100 mg/kg/day, F, read-out: Tmax (median)): 0.5 h
- AUC(0-t) [2, 15]: 37100 ng·h/mL
- Cmax [2, 15]: 3710 ng/mL
- Tmax ([2]; female, Sprague Dawley, po, 400 mg/kg/day, day 7, PO 400 mg/kg/day, F, read-out: Tmax (median)): 0.5 h
- AUC(0-t) [2, 16]: 2260 ng·h/mL
- Cmax [2, 16]: 322 ng/mL
- Tmax ([2]; male, Sprague Dawley (Crl: CD (SD)), po, 10 mg/kg/day, day 7, PO 10 mg/kg/day, M, read-out: Tmax (median)): 1 h
- AUC(0-t) [2, 17]: 15200 ng·h/mL
- Cmax [2, 17]: 1920 ng/mL
- Tmax ([2]; male, Sprague Dawley (Crl: CD (SD)), po, 400 mg/kg/day, day 1, PO 400 mg/kg/day, M, read-out: Tmax (median)): 8 h
- AUC(0-t) [2, 18]: 1320 ng·h/mL
- Cmax [2, 18]: 365 ng/mL
- Tmax ([2]; male, Sprague Dawley, po, 10 mg/kg/day, day 1, PO 10 mg/kg/day, M, read-out: Tmax (median)): 0.5 h
- AUC(0-t) [2, 19]: 11800 ng·h/mL
- Cmax [2, 19]: 1420 ng/mL
- Tmax ([2]; male, Sprague Dawley, po, 100 mg/kg/day, day 1, PO 100 mg/kg/day, M, read-out: Tmax (median)): 0.5 h
- AUC(0-t) [2, 20]: 12900 ng·h/mL
- Cmax [2, 20]: 1610 ng/mL
- Tmax ([2]; male, Sprague Dawley, po, 100 mg/kg/day, day 7, PO 100 mg/kg/day, M, read-out: Tmax (median)): 0.5 h
- AUC(0-t) [2, 21]: 32700 ng·h/mL
- Cmax [2, 21]: 2340 ng/mL
- Tmax ([2]; male, Sprague Dawley, po, 400 mg/kg/day, day 7, PO 400 mg/kg/day, M, read-out: Tmax (median)): 8 h
